Data published in patent US8765459B2, “Apparatus and methods for manipulation and optimization of biological systems” (The Regents of the University of California, priority 2004, dated 2014).

B1: TNFβ: cytokine used as stimulus of NF-κB activity (protein, UniProt P01374 35-205, looked up)
Lymphotoxin-alpha: LPGVGLTPSAAQTARQHPKMHLAHSTLKPAAHLIGDPSKQNSLLWRANTDRAFLQDGFSLSNNSLLVPTSGIYFVYSQVVFSGKAYSPKATSSPLYLAHEVQLFSSQYPFHVPLLSSQKMVYPGLQEPWLHSMYHGAAFQLTQGDQLSTHTDGIPHLVLSPSTVFFGAFAL
B2: IL-1α: cytokine used as stimulus of NF-κB activity (protein, UniProt P01583 113-271, looked up)
Interleukin-1 alpha: SAPFSFLSNVKYNFMRIIKYEFILNDALNQSIIRANDQYLTAAALHNLDEAVKFDMGAYKSSKDDAKITVILRISKTQLYVTAQDEDQPVLLKEMPEIPKTITGSETNLLFFWETHGTKNYFTSVAHPNLFIATKQDYWVCLAGGPPSITDFQILENQA

How the values were obtained:
[1] = test system: NF-κB; experiment: Sensitivity analysis of individual cytokines in the potent combination, NF-κB GFP reporter, 96-well plates; type: cell-based; conditions: 293T cells; for effect on NF-κB activity when varied within the potent cytokine combination / decrease in fluorescence intensity on elimination of the cytokine from the cytokine combination: 96-well plates, other cytokines held constant, 1 h stimulation, fluorescence 7 h after
Description: (§1) Microfluidic systems have been proven to be effective for manipulating different biological objects, such as cells and molecules. In this example, the optimization experiments were conducted inside microfluidic channels to facilitate real-time monitoring and dynamic stimulation of the cells. (In FIGS. 7a, the concentrations of individual cytokines are indicated as follows: TNFα concentrations are plotted as solid squares; TNFβ concentrations are plotted as solid circles; IL-1α concentrations are plotted as solid triangles; IL-1β concentrations are plotted as inverted triangles; EFG concentrations are plotted as open squares; and BAFF concentrations are plotted as open circles.) The initial concentrations of the cytokines were 2.5 ng/ml. In order to monitor the activity of the NF-κB, a plasmid with a green fluorescent protein (GFP) reporter gene was placed in the 293T cell. The GFP expression is controlled by a promoter which consisted of a kappa enhancer element (κB4). Similar configurations have been applied in other studies where the GFP fluorescence intensity was able to reflect the cellular NF-κB activity. In addition, computational analysis was performed to correlate the relationship between the expression level of GPF and the activity of NF-κB. Numerical simulation indicated the best duration and time for cytokine stimulation and GFP intensity measurement. The GFP fluorescence intensity of each cell was recorded 7 hours after the stimulation as shown in FIG. 7B (data represent the average intensity of 40-128 cells).
Experiments were conducted in 96-well plates. The cells were stimulated with the appropriate concentration of cytokines for one hour and washed with fresh media.

[2] = test system: NF-κB; experiment: Gur Game closed-loop optimization of cytokine combination, NF-κB GFP reporter in microfluidic channels; type: cell-based; conditions: 293T cells with κB4-GFP reporter; 1 h stimulation, GFP read 7 h after; determined by final probability distributions of Gur Game search
Description: To implement the Gur Game algorithm, each cytokine was represented by an automaton with 10 discrete states (0, 0.25, 0.5, 1, 2.5, 5, 10, 25, 50, and 100 ng/ml) as shown in FIG. 6. At each iteration, a combination of cytokines at their respective states was applied to stimulate the cells for one hour. […] The GFP expression kinetics is thought to be controlled by protein folding and degradation rates, while the amount of transcription (GFP intensity) is thought to provide an indication of the NF-κB activity. The peak intensities were normalized as the reward function for Gur Game. The reward function maps the system state from 0 to 1, with high GFP intensity corresponds to values nearer 1. For each automaton, a random number from 0 to 1 is chosen and compared with the reward value. The next states of the automata were determined according to a prescribed manner (see FIG. 1). The process was repeated for each cytokine during each iteration.
as §1
The Gur Game was used to determine the cytokine concentrations in subsequent iterations to probabilistically drive the system toward a high GFP output, i.e. high NF-κB activity. FIG. 6 is a flow chart illustrating an exemplary Gur Game Algorithm, the algorithm used in this example. A detailed description of this exemplary algorithm is set forth above. The peak intensities were normalized as the reward function for this exemplary Gur Game algorithm. The reward function maps the system state from 0 to 1, with high GFP intensity corresponds to values nearer 1. For each automaton, a random number from 0 to 1 is chosen and compared with the reward value.
The next states of the automata were determined according to a prescribed manner, as illustrated in FIG. 7. The process was repeated for each cytokine during each iteration. Each cytokine as represented by an automaton. The numbers represent the concentration of the cytokines, in ng/ml. During each iteration, a random number was generated for each automaton. The numbers were compared to the reward value. If the reward value was larger than the random number, the automaton was rewarded (win). Otherwise, the automaton was penalized (lose). The automaton then decided the state in the next iteration according to the automaton design. Generally, the state moves toward center if penalized, and away the center if rewarded.
Referring to FIGS. 8aand 8b, initially, the system rejected several cytokine combinations with seemingly high outputs. […]

Row | Molecule | effect on NF-κB activity alone, without the potent cytokine combination [1] | effect on NF-κB activity when varied within the potent cytokine combination [1] | concentration in the most potent cytokine combination for activating NF-κB [2] [ng/mL] | decrease in fluorescence intensity on elimination of the cytokine from the cytokine combination [1] [%]
1 | BAFF: cytokine tested in the combination for NF-κB activity | minimal effect | minimal effect | 2.5 | 
2 | IL-1β: cytokine used as stimulus of NF-κB activity |  | not sensitive to their concentrations in the range of 25-50 ng/ml | 25 | ~30
3 | TNFα |  | most sensitive in the combination | 25 | ~50
4 | epidermal growth factor [EGF] | did not show a strong effect | decreased the NF-κB activity with increasing dose concentration | 2.5 | 
5 | B1 |  |  | 50 | ~30
6 | B2 |  | not sensitive to their concentrations in the range of 25-50 ng/ml | 50 | ~30
